Measurements as given in patent US20080269267A1, “KINASE INHIBITORS USEFUL FOR THE TREATMENT OF MYLEOPROLIFIC DISEASES AND OTHER PROLIFERATIVE DISEASES” (Deciphera Pharmaceuticals, LLC, priority 2007, published 2008).
Structures can show the parent of a compound that is named as a salt.

Columns and labels:
[1] = target: T1, Abl kinase (SEQ ID NO:1) (Homo sapiens, UniProt P00519); assay: Abl kinase assay (pyruvate kinase/lactate dehydrogenase coupled, ADP production); settings: 2 h preincubation at 30° C., ATP 500 μM; read-out: Abl Enzyme Assay, biochemical IC50
T1 construct: purchased deCode Genetics
T1 sequence (P00519 with tags, fused parts or gaps): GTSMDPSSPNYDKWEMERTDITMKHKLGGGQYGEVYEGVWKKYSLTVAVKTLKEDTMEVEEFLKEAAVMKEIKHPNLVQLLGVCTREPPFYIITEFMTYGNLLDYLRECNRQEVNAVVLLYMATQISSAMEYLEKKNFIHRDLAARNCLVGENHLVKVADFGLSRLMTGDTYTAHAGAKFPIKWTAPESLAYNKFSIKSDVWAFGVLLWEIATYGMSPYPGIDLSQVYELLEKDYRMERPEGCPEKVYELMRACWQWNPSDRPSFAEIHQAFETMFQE
Experimental: Abl Kinase (SEQ ID NO:1) Assay
Activity of Abl kinase (SEQ ID NO:1) was determined by following the production of ADP from the kinase reaction through coupling with the pyruvate kinase/lactate dehydrogenase system (e.g., Schindler, et al. Science (2000) 289, 1938-1942). In this assay, the oxidation of NADH (thus the decrease at A340nm) was continuously monitored spectrophometrically. The reaction mixture (100 μl) contained Abl kinase (1 nM. Abl from deCode Genetics), peptide substrate (EAIYAAPFAKKK. 0.2 mM), MgCl2 (10 mM), pyruvate kinase (4 units), lactate dehydrogenase (0.7 units), phosphoenol pyruvate (1 mM), and NADH (0.28 mM) in 90 mM Tris buffer containing 0.2% octyl-glucoside and 3.5% DMSO, pH 7.5. Test compounds were incubated with Abl (SEQ ID NO:1) and other reaction reagents at 30° C. for 2 h before ATP (500 μM) was added to start the reaction. The absorption at 340 nm was monitored continuously for 2 hours at 30° C. on Polarstar Optima plate reader (BMG). The reaction rate was calculated using the 1.0 to 2.0 h time frame. Percent inhibition was obtained by comparison of reaction rate with that of a control (i.e. with no test compound). IC50 values were calculated from a series of percent inhibition values determined at a range of inhibitor concentrations using software routines as implemented in the GraphPad Prism software package.

[2] = target: B-Raf(V600E) kinase (SEQ ID NO:11) (Homo sapiens, UniProt P15056, V600E); assay: B-Raf(V600E) kinase assay (pyruvate kinase/lactate dehydrogenase coupled, MEK1 substrate); settings: 1 h preincubation at 30° C., ATP 0.2 mM; read-out: B-Raf V600E Enzyme Assay, biochemical IC50
Experimental: B-Raf(V600E) Kinase Assay
The activity of B-Raf(V600E) kinase (SEQ ID NO:11) was determined by following the formation of ADP from the reaction through coupling with the pyruvate kinase/lactate dehydrogenase system (e.g., Schindler, et al. Science (2000) 289, 1938-1942). In this assay, the oxidation of NADH (thus the decrease at A340nm) was continuously monitored spectrophotometrically. The reaction mixture (100 μl) contained B-Raf(V600E) kinase (0.34 nM nominal concentration, SEQ ID NO:11), unphosphorylated, full-length MEK1 (42 nM, SEQ ID NO:12), MgCl2 (13 mM), pyruvate kinase (3.5 units), lactate dehydrogenase (5.5 units), phosphoenolpyruvate (1 mM), and NADH (0.28 mM), in 60 mM Tris buffer, containing 0.13% octyl-glucoside and 3.5% DMSO concentration at pH 7.5. The test compounds were incubated with the reaction mixture at 30° C. for 1 h. The reaction was initiated by adding ATP (0.2 mM, final concentration). The absorption at 340 nm was continuously monitored for 3 h at 30° C. on a Polarstar Optima plate reader (BMG). The reaction rate was calculated using the 0.5 h to 1.5 h time frame. Percent inhibition was obtained by comparison of reaction rate with that of a control (i.e. with no test compound). IC50 values were calculated from a series of percent inhibition values determined at a range of inhibitor concentrations using software routines as implemented in the GraphPad Prism software package.

[3] = target: T2, BaF3 cells transfected with wild type p210 BCR-Abl (Homo sapiens, UniProt P00519); assay: Ba/F3 p210 whole cell proliferation assay (Cell Titer Blue, 72 hours); type: cell-based; settings: 72 hours incubation; read-out: Ba/F3 p210 whole cell proliferation assay, antiproliferation IC50
T2 construct: fused on or other part: P11274 (Breakpoint cluster region protein)
Experimental: BaF3 cells (parental or transfected with the following: wild type p210 BCR-Abl and T315I p210 BCR-Abl was obtained from Professor Richard Van Etten (New England Medical Center, Boston, Mass.). Briefly, cells were grown in RPMI 1640 supplemented with 10% characterized fetal bovine serum (HyClone, Logan, Utah) at 37 degrees Celsius, 5% CO2, 95% humidity. Cells were allowed to expand until reaching 80% saturation at which point they were subcultured or harvested for assay use.
A serial dilution of test compound was dispensed into a 96 well black clear bottom plate (Corning, Corning, N.Y.). For each cell line, three thousand cells were added per well in complete growth medium. Plates were incubated for 72 hours at 37 degrees Celsius, 5% CO2, 95% humidity. At the end of the incubation period Cell Titer Blue (Promega, Madison, Wis.) was added to each well and an additional 4.5 hour incubation at 37 degrees Celsius, 5% CO2, 95% humidity was performed. Plates were then read on a BMG Fluostar Optima (BMG, Durham, N.C.) using an excitation of 544 nm and an emission of 612 nm. Data was analyzed using Prism software (Graphpad, San Diego, Calif.) to calculate IC50's.

T2 sequence (P00519 whole entry, change not shown, the tested form may be a part): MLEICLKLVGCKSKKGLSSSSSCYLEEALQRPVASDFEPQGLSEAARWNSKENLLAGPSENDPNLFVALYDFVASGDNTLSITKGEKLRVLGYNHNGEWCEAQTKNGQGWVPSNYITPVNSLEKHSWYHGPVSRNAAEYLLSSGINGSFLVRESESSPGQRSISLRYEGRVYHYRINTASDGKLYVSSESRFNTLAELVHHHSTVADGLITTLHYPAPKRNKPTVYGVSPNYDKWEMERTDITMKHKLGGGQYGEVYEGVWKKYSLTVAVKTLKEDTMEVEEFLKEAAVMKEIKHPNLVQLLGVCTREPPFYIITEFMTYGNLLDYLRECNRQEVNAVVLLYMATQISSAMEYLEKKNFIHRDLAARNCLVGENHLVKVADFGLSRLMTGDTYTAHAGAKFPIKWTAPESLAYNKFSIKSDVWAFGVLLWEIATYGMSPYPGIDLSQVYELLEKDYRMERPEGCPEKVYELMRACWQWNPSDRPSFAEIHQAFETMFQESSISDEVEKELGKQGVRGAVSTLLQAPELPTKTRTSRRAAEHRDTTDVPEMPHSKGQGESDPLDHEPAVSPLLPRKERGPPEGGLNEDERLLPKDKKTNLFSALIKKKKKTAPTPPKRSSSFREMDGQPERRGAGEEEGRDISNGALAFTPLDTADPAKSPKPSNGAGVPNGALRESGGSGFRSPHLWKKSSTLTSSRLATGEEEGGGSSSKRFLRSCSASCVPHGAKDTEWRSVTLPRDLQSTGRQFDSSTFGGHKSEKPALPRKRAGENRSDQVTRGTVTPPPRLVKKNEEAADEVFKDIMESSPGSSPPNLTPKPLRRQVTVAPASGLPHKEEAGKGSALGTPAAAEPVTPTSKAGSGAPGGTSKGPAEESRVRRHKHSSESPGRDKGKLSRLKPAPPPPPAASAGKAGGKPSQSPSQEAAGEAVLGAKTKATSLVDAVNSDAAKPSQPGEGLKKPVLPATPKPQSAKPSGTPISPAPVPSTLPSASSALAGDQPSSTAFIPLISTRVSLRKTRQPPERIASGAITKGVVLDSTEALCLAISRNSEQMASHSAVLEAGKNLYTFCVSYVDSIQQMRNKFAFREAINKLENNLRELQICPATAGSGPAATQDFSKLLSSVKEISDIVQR
B-Raf(V600E) kinase (SEQ ID NO:11), sequence (P15056 with tags, fused parts or gaps V600E): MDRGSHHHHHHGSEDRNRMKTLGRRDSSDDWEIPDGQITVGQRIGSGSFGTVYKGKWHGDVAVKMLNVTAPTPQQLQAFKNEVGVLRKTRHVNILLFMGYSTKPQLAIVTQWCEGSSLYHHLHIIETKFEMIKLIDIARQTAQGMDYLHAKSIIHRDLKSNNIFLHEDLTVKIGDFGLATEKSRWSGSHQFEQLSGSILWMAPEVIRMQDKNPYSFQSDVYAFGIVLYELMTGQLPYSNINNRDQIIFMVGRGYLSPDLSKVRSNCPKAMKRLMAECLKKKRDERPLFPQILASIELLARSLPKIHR

Compound	IC50 [1]	IC50 [2]	GI50 [3]
CC(C)c1cc(NC(=O)Nc2ccc(Oc3ccnc(-c4cnn(C)c4)c3)cc2F)n(-c2cccc(F)c2)n1 [Example 24, 1-(2-fluoro-4-(2-(1-methyl-1H-pyrazol-4-yl)pyridin-4-yloxy)phenyl)-3-(1-(3-fluorophenyl)-3-isopropyl-1H-pyrazol-5-yl)urea]	< 100 nM	< 100 nM	< 100 nM
Cn1cc(-c2cc(Oc3ccc(NC(=O)Nc4cc(C(C)(C)C)nn4-c4ccc(C#N)cc4)c(F)c3)ccn2)cn1 [Example 6, 1-(3-tert-butyl-1-(4-cyanophenyl)-1H-pyrazol-5-yl)-3-(2-fluoro-4-(2-(1-methyl-1H-pyrazol-4-yl)pyridin-4-yloxy)phenyl)urea]	< 100 nM	< 100 nM	< 100 nM
1-(2-tert-butyl-4-(pyridin-3-yl)pyrimidin-5-yl)-3-(2-fluoro-5-(8-methyl-2-(methylamino)-7-oxo-7,8-dihydropyrido[2,3-d]pyrimidin-6-yl)phenyl)urea [Example 10]	< 100 nM	< 1000 nM	< 100 nM
CC(C)(C)c1cc(NC(=O)Nc2ccc(Oc3ccnc(-c4cn[nH]c4)c3)cc2F)n(-c2cccc(C#N)c2)n1 [Example 3, 1-(4-(2-(1H-pyrazol-4-yl)pyridin-4-yloxy)-2-fluorophenyl)-3-(3-tert-butyl-1-(3-cyanophenyl-1H-pyrazol-5-yl)urea hydrochloride]	< 100 nM	< 100 nM	< 100 nM
CCc1cc(NC(=O)Nc2ccc(Oc3ccnc(-c4cnn(C)c4)c3)cc2F)n(-c2cccc(C#N)c2)n1 [Example 9, 1-(1-(3-cyanophenyl)-3-ethyl-1H-pyrazol-5-yl)-3-(2-fluoro-4-(2-(1-methyl-1H-pyrazol-4-yl)pyridin-4-yloxy)phenyl)urea]	< 100 nM	< 1000 nM	< 100 nM
CC(C)c1cc(NC(=O)Nc2ccc(Oc3ccnc(-c4cnn(C)c4)c3)c(F)c2F)n(-c2cccc(C#N)c2)n1 [Example 13, 1-(1-(3-cyanophenyl)-3-isopropyl-1H-pyrazol-5-yl)-3-(2,3-difluoro-4-(2-(1-methyl-1H-pyrazol-4-yl)pyridin-4-yloxy)phenyl)urea]	< 100 nM	< 100 nM	< 100 nM
Cc1c(Oc2ccnc(-c3cnn(C)c3)c2)ccc(NC(=O)Nc2cc(C(C)C)nn2-c2cccc(C#N)c2)c1F [Example 12, 1-(1-(3-cyanophenyl)-3-isopropyl-1H-pyrazol-5-yl)-3-(2-fluoro-3-methyl-4-(2-(1-methyl-1H-pyrazol-4-yl)pyridin-4-yloxy)phenyl)urea]	< 100 nM	< 100 nM	< 100 nM
Cc1ccc(-n2nc(C(C)C)cc2NC(=O)Nc2ccc(Oc3ccnc(-c4cnn(C)c4)c3)cc2F)cc1C#N [Example 11, 1-(1-(3-cyano-4-methylphenyl)-3-isopropyl-1H-pyrazol-5-yl)-3-(2-fluoro-4-(2-(1-methyl-1H-pyrazol-4-yl)pyridin-4-yloxy)phenyl)urea]	< 100 nM	< 100 nM	< 100 nM

Results, then the compound that gave them:

IC50 [1]	IC50 [2]	GI50 [3]	Compound
< 100 nM	< 100000 nM	< 100 nM	Cc1ncc(NC(=O)Nc2ccc(Oc3ccnc(-c4cnn(C)c4)c3)cc2F)c(-c2ccccc2)n1 [Example 14, 1-(2-fluoro-4-(2-(1-methyl-1H-pyrazol-4-yl)pyridin-4-yloxy)phenyl)-3-(2-methyl-4-phenylpyrimidin-5-yl)urea]
< 100 nM	< 100 nM	< 100 nM	Cn1cc(-c2cc(Oc3ccc(NC(=O)Nc4cc(C(C)(C)C)nn4-c4cccc(CO)c4)c(F)c3)ccn2)cn1 [Example 7, 1-(3-tert-butyl-1-(3-(hydroxymethyl)phenyl)-1H-pyrazol-5-yl)-3-(2-fluoro-4-(2-(1-methyl-1H-pyrazol-4-yl)pyridin-4-yloxy)phenyl)urea p-toluenesulfonic acid]
< 100 nM	< 100 nM	< 100 nM	Cn1cc(-c2cc(Oc3ccc(NC(=O)Nc4cc(C(C)(C)C)nn4-c4cccc(C#N)c4)c(F)c3)ccn2)cn1 [Example 4, 1-(3-tert-butyl-1-(3-cyanophenyl)-1H-pyrazol-5-yl)-3-(2-fluoro-4-(2-(1-methyl-1H-pyrazol-4-yl)pyridin-4-yloxy)phenyl)urea hydrochloride]
< 100 nM	< 100 nM	< 100 nM	CC(C)c1cc(NC(=O)Nc2ccc(Oc3ccnc(-c4cnn(C)c4)c3)c(F)c2)n(-c2cccc(C#N)c2)n1 [Example 16, 1-(1-(3-cyanophenyl)-3-isopropyl-1H-pyrazol-5-yl)-3-(3-fluoro-4-(2-(1-methyl-1H-pyrazol-4-yl)pyridin-4-yloxy)phenyl)urea]
< 100 nM	< 100 nM	< 100 nM	Cn1cc(-c2cc(Oc3ccc(NC(=O)Nc4cc(C(C)(C)C)nn4-c4ccc(CO)cc4)c(F)c3)ccn2)cn1 [Example 8, 1-(3-tert-butyl-1-(4-(hydroxymethyl)phenyl)-1H-pyrazol-5-yl)-3-(2-fluoro-4-(2-(1-methyl-1H-pyrazol-4-yl)pyridin-4-yloxy)phenyl)urea]
< 100 nM	< 10000 nM	< 100 nM	CCc1cc(NC(=O)Nc2ccc(Oc3ccnc(-c4cnn(C(C)C)c4)c3)cc2F)n(-c2cccc(C#N)c2)n1 [Example 17, 1-(1-(3-cyanophenyl)-3-ethyl-1H-pyrazol-5-yl)-3-(2-fluoro-4-(2-(1-isopropyl-1H-pyrazol-4-yl)pyridin-4-yloxy)phenyl)urea]
< 100 nM	< 1000 nM	< 1000 nM	Cn1cc(-c2cc(Oc3ccc(NC(=O)Nc4cc(-c5ccccc5F)nn4C)c(F)c3F)ccn2)cn1 [Example 25, 1-(2,3-difluoro-4-(2-(1-methyl-1H-pyrazol-4-yl)pyridin-4-yloxy)phenyl)-3-(3-(2-fluorophenyl)-1-methyl-1H-pyrazol-5-yl)urea]
< 100 nM	< 1000 nM	< 100 nM	CC(C)n1cc(NC(=O)Nc2ccc(Oc3ccnc(-c4cnn(C)c4)c3)cc2F)c(-c2ccccc2)n1 [Example 21, 1-(2-fluoro-4-(2-(1-methyl-1H-pyrazol-4-yl)pyridin-4-yloxy)phenyl)-3-(1-isopropyl-3-phenyl-1H-pyrazol-4-yl)urea]
